Assay results: patent US8828928B2, “Amphiphilic peptides and peptide particles” (President and Fellows of Harvard College, priority 2011, dated 2014)
One block for each compound: values may come before it.

Columns and labels:
[1] = test system: CHO cells; test: Release of encapsulated Flutax-2 into the cytosol of CHO cells; assay type: cell-based, Chinese hamster; settings: 24 hours, 0.67 μM Flutax-2
Description: To assess whether binding and internalization of PNPs can result in the selective import of small molecule cargo, the release of encapsulated Flutax-2 into cells was analyzed 24 hours post addition of PNPFlutax-2^Tfn-AF568 into the cells (FIGS. 13A-13I). Flutax-2 is an Oregon Green (OG) modified derivative of paclitaxel(19), a mitotic inhibitor applied in cancer therapy (20). Unlike its unlabeled form, Flutax-2 is charged and water-soluble at the applied concentration and does consequently not permeate cell membranes. Thus, it was used a model compound to investigate efficiency and specificity of small molecule delivery by PNPs to the cytosol. […] Flutax-2 emission in the cytosol was averaged to quantify the amount of delivered compound into the cells.
CHO cell lines were grown in F12:DMEM 1:1 (Cellgro, 10-090) plus 10% fetal bovine serum (Gibco). […] Samples were fixed with 3% paraformaldehyde (Sigma, P6148) in PBS, mounted on glass slides using fluorescent mounting medium (Dako, 53023) and analyzed within 24 hours.
Fixed cells were analyzed on a Nikon Ti inverted microscope equipped with 60× Plan Apo NA 1.4 objective lens. DAPI fluorescence was excited with a 360/40 filter and collected with a 460/50 emission filter. Oregon Green fluorescence was excited with a 360/40 and collected with a 480/40 emission filter. […]

[2] = Solubility of the peptides in water and organic solvents; assay type: physicochemical
[3] = Stability of nucleic acid-containing peptide particles in water and at physiological salt strength; assay type: physicochemical
Excerpt: It should be noted that a mixture of CD3 peptides and nucleic acid molecules can self-assemble to form stable particles in pure water; however, they are generally not stable and dissolve, responding to increasing salt strengths and higher temperatures.
Accordingly, in some embodiments, a mixture of fully-acetylated amphiphilic peptides (e.g., CD3ac peptides), partially-acetylated or non-acetylated amphiphilic peptides (e.g., CD3 peptides) and nucleic acid molecules can be prepared to form stable peptide particles containing nucleic acid molecules (e.g., DNA or RNA including siRNA). […] It was determined that the presence of CD3ac peptides stabilizes ssDNA-containing peptide particles at physiological conditions. All the three components co-precipitated to form ssDNA-containing peptide particles that were stable at the corresponding salt strength.

[4] = Size of CD3ac beads by SEM and dynamic light scattering; assay type: physicochemical; settings: SEM and DLS; initially dissolved CD3ac 123×10^−6 M
Description: Scanning electron microscopy (SEM) was carried out on a Hitachi S-4800. SEM sample holders were cooled to −196° C. before a drop of the bead suspension was directly applied to the cold metal surface. The frozen sample on the plate was subsequently lyophilized, sputtered with platinum and analyzed.
Dynamic light scattering was measured on an ALV/CGS-8F platform based goniometer system equipped with an ALV/-5000/E correlator and an Argon-Ion laser with a wavelength of […] (35 mW) at scattering angles between 30° and 150°. An ALV-5000/E correlator calculates the photon intensity autocorrelation function g2(t). All experiments were performed at T=293 K and evaluated by second order cumulant fit (considering previously determined spherical particle shape by SEM). Polydispersities were determined by the contin-algorithm at all angles and never exceeded 0.11. […] For both angular and concentration dependence, a hydrodynamic radius was calculated from the Stokes-formula
[formula] where rh is the hydrodynamic radius of spherical particles, D is the diffusion constant, kB is the Boltzmann constant, T is the absolute temperature and is the viscosity of water. A graph of 1/rh versus angle (concentration) was plotted and the hydrodynamic radius (rh0) was calculated by extrapolating both concentration and angle measurements to zero. […]

[5] = Particle diameter and corona thickness by negative staining TEM; assay type: physicochemical
Description: PNPs were assembled by mixing stock solutions of CD3ac, Tfn-AF568 and Flutax-2 to yield final concentrations of 123 μM CD3ac, 6 μM Flutax-2 and 10 μg/mL Tfn-AF568 in H2O:EtOH (1:1, v/v). Emulsification was induced by a first dilution step (1:1, H2O) followed by an equilibration period of 15 minutes before the ethanol content was further reduced to […] by the second dilution step (1:1, H2O). 50 μL aliquots of the resulting suspension were applied to 24-well sitting drop crystallization plates (Hampton Research, Cryschem) and counter-evaporated 3 times against 1 mL H2O during six hours.
PNP samples were prepared as described above. 5 μL of PNPs suspended in H2O were applied to a carbon film coated copper grid (400 square mesh, Electron Microscopy Sciences) and dried. The sample was stained with 10 μL 1% uranyl acetate during one minute. Excess stain was removed with a filter paper and subsequently applied to a Tecnai G^2 Spirit BioTWIN.

[6] = Estimating bead volume and density of CD3ac precipitates; assay type: physicochemical
Description: In order to estimate the density of CD3ac precipitates, beads (307.5×10^−6 M CD3ac starting concentration) were prepared large enough to exceed the diffraction limit of visible light. A low concentration of RB (10×10^−6 M) was co-precipitated to allow an estimate of the bead diameter by confocal fluorescence microscopy (1.35 μm) and facilitate counting on a hemacytometer (Hausser Scientific). An average of 72 beads were counted in an observed cell volume of 250,000 μm^3 that equals a bead volume fraction of 3.71×10^−4. A solution of 50 μL 307.5×10^−6M CD3ac thus contains a total bead volume of […] and the density of CD3ac can be determined (ρCD3ac≈1.35 g/cm^3). The logarithmic partition coefficient of RB in an aqueous solution of CD3ac beads was calculated according to […]

Compound: Flutax-2
Flutax-2 emission in the cytosol [1]: could not be detected

Compound: CC(C)C[C@@H](NC(=O)[C@H](Cc1c[nH]c2ccccc12)NC(=O)[C@@H](CC(C)C)NC(=O)[C@H](Cc1c[nH]c2ccccc12)NC(=O)[C@@H](CC(C)C)NC(=O)[C@H](Cc1c[nH]c2ccccc12)NC(=O)[C@@H](N)CCCCN)C(=O)N[C@@H](Cc1c[nH]c2ccccc12)C(N)=O (racemic) [CD1, H-LK-LW-DL-LW-DL-LW-DL-LW-NH2]
solubility in water [2]: water soluble

Compound: CC(C)C[C@@H](NC(=O)[C@H](Cc1c[nH]c2ccccc12)NC(=O)[C@@H](CC(C)C)NC(=O)[C@H](Cc1c[nH]c2ccccc12)NC(=O)[C@@H](CC(C)C)NC(=O)[C@H](Cc1c[nH]c2ccccc12)NC(=O)[C@H](CCCCN)NC(=O)[C@@H](N)CCCCN)C(=O)N[C@@H](Cc1c[nH]c2ccccc12)C(N)=O (racemic) [CD2, H-LK-LK-LW-DL-LW-DL-LW-DL-LW-NH2]
solubility in water [2]: water soluble

Second part, the compound after the results:

solubility in water [2]: water soluble
particle stability at increasing / physiological salt strength [3]: not stable
particle stability in pure water [3]: stable
Compound: CC(C)C[C@@H](NC(=O)[C@H](Cc1c[nH]c2ccccc12)NC(=O)[C@@H](CC(C)C)NC(=O)[C@H](Cc1c[nH]c2ccccc12)NC(=O)[C@@H](CC(C)C)NC(=O)[C@H](Cc1c[nH]c2ccccc12)NC(=O)[C@H](CCCCN)NC(=O)[C@H](CCCCN)NC(=O)[C@@H](N)CCCCN)C(=O)N[C@@H](Cc1c[nH]c2ccccc12)C(N)=O (racemic) [CD3, H-LK-LK-LK-LW-DL-LW-DL-LW-DL-LW-NH2]

solubility in water [2]: insoluble
solubility in organic solvents ([2]; EtOH, iPrOH, DMSO, DMF, MeCN): readily dissolves
particle radius [4]: about 260 nm
thickness of the protein corona [5]: 9.0+/−2.1 nm
average particle diameter ([5]; assembled in the absence of Tfn-AF568): 100 nm
average particle diameter ([5]; assembled in the presence of Tfn-AF568, excluding corona): 51 nm
bead diameter ([6]; 307.5×10^−6 M CD3ac starting concentration, 10×10^−6 M RB, confocal fluorescence microscopy): 1.35 μm
density of CD3ac precipitates (ρCD3ac) ([6]; from bead count and bead volume fraction): ≈ 1.35 g/cm^3
Compound: CC(=O)NCCCC[C@H](NC(C)=O)C(=O)N[C@@H](CCCCNC(C)=O)C(=O)N[C@@H](CCCCNC(C)=O)C(=O)N[C@@H](Cc1c[nH]c2ccccc12)C(=O)N[C@H](CC(C)C)C(=O)N[C@@H](Cc1c[nH]c2ccccc12)C(=O)N[C@H](CC(C)C)C(=O)N[C@@H](Cc1c[nH]c2ccccc12)C(=O)N[C@H](CC(C)C)C(=O)N[C@@H](Cc1c[nH]c2ccccc12)C(N)=O (racemic) [CD3ac, Ac-LK(Ac)-LK(Ac)-LK(Ac)-LW-DL-LW-DL-LW-DL-LW-NH2]

solubility in water [2]: water soluble
Compound: CC(C)C[C@@H](NC(=O)[C@H](Cc1c[nH]c2ccccc12)NC(=O)[C@@H](CC(C)C)NC(=O)[C@H](Cc1c[nH]c2ccccc12)NC(=O)[C@@H](CC(C)C)NC(=O)[C@H](Cc1c[nH]c2ccccc12)NC(=O)[C@H](CCCCN)NC(=O)[C@H](CCCCN)NC(=O)[C@H](CCCCN)NC(=O)[C@@H](N)CCCCN)C(=O)N[C@@H](Cc1c[nH]c2ccccc12)C(N)=O (racemic) [CD4, H-LK-LK-LK-LK-LW-DL-LW-DL-LW-DL-LW-NH2]
